Publication PMC11677527, “Predicting Pharmacokinetics of Active Constituents in Spatholobi caulis by Using Physiologically Based Pharmacokinetic Models” (Pharmaceuticals, 2024)
Read-outs that look alike come from different tables or passages of the source.

What was measured:
[1] = Observed pharmacokinetics in rats after oral SPC (previous study); assay type: in vivo, rat; conditions: p.o. SPC
Caco-2 cell monolayer = system: Caco-2 cell monolayer; parameters: method as in PMID 36680806, PMID 26501241; conditions: Caco-2 cell monolayer model; cited from earlier work
[2] = parameters: method as in PMID 34303214; conditions: rats, p.o. SPC 30 g crude drug/kg; doses of 1-4: 0.062, 0.11, 0.71, 1.31 mg/kg; cited from earlier work
[3] = Verification pharmacokinetic experiment in rats, SPC 60 g crude drug/kg by gavage, UFLC-MS/MS, DAS 2.0; assay type: in vivo, rat
Summary of the method: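 Rats received SPC suspension at 60 g crude drug/kg by gavage. Orbital blood was taken at 0.083–12 h into heparin, and plasma 3′-methoxydaidzein, 8-O-methylretusin, daidzin and isolariciresinol were measured by UFLC-MS/MS (C18, MRM, carbamazepine internal standard). PK parameters were calculated from concentration-time curves.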

[4] = compartment model parameters, DAS 2.0, rats p.o. SPC 60 g crude drug/kg, Mean, 5 rats
[5] = statistical moment parameters, DAS 2.0, rats p.o. SPC 60 g crude drug/kg, Mean, 5 rats
[6] = statistical moment parameters, DAS 2.0, rats p.o. SPC 60 g crude drug/kg, Mean, 5 rats, in µg·h²/mL

## O=c1c(-c2ccc(O)cc2)coc2cc(O[C@@H]3O[C@H](CO)[C@@H](O)[C@H](O)[C@H]3O)ccc12 [Constituent 3, daidzin]
[1]
  time of slight secondary absorption peak: 6 h
Caco-2 cell monolayer
  Papp: 4 ×10⁻⁶ cm/s
[2]
  AUC0→t Obs.: 28.4 ng·h/mL
  AUC0→∞ Obs.: 30.5 ng·h/mL
  Cmax Obs.: 15.1 ng/mL
  Tmax Obs.: 0.21 h
[3]; [4]
  K10: 0.981 h⁻¹
  K12: 0.402 h⁻¹
  K21: 0.15 h⁻¹
  Ka: 16.131 h⁻¹
  Tlag: 0 h
  V1/F: 37.289 L/kg
  t1/2Ka: 0.385 h
  t1/2α: 0.868 h
[3]; rat, plasma, oral, time 0.083 h, rats p.o. SPC 60 g crude drug/kg, doses of 1-4: 0.124, 0.22, 1.4, 2.62 mg/kg, 5 rats
  concentration at 0.083 h: 16.4 ng/mL
[3]; rat, plasma, oral, time 0.25 h, rats p.o. SPC 60 g crude drug/kg, doses of 1-4: 0.124, 0.22, 1.4, 2.62 mg/kg, 5 rats
  concentration at 0.25 h: 28 ng/mL
[3]; rat, plasma, oral, time 0.5 h, rats p.o. SPC 60 g crude drug/kg, doses of 1-4: 0.124, 0.22, 1.4, 2.62 mg/kg, 5 rats
  concentration at 0.5 h: 21 ng/mL
[3]; rat, plasma, oral, time 0.75 h, rats p.o. SPC 60 g crude drug/kg, doses of 1-4: 0.124, 0.22, 1.4, 2.62 mg/kg, 5 rats
  concentration at 0.75 h: 18.4 ng/mL
[3]; rat, plasma, oral, time 1 h, rats p.o. SPC 60 g crude drug/kg, doses of 1-4: 0.124, 0.22, 1.4, 2.62 mg/kg, 5 rats
  concentration at 1 h: 10.9 ng/mL
[3]; rat, plasma, oral, time 1.5 h, rats p.o. SPC 60 g crude drug/kg, doses of 1-4: 0.124, 0.22, 1.4, 2.62 mg/kg, 5 rats
  concentration at 1.5 h: 5.55 ng/mL
[3]; rat, plasma, oral, time 2 h, rats p.o. SPC 60 g crude drug/kg, doses of 1-4: 0.124, 0.22, 1.4, 2.62 mg/kg, 5 rats
  concentration at 2 h: 3.16 ng/mL
[3]; rat, plasma, oral, time 3 h, rats p.o. SPC 60 g crude drug/kg, doses of 1-4: 0.124, 0.22, 1.4, 2.62 mg/kg, 5 rats
  concentration at 3 h: 2.62 ng/mL
[3]; rat, plasma, oral, time 4 h, rats p.o. SPC 60 g crude drug/kg, doses of 1-4: 0.124, 0.22, 1.4, 2.62 mg/kg, 5 rats
  concentration at 4 h: 1.56 ng/mL
[3]; rat, plasma, oral, time 6 h, rats p.o. SPC 60 g crude drug/kg, doses of 1-4: 0.124, 0.22, 1.4, 2.62 mg/kg, 5 rats
  concentration at 6 h: 1.39 ng/mL
[3]; rat, plasma, oral, time 8 h, rats p.o. SPC 60 g crude drug/kg, doses of 1-4: 0.124, 0.22, 1.4, 2.62 mg/kg, 5 rats
  concentration at 8 h: 1.18 ng/mL
[3]; rat, plasma, po, 1.4 mg/kg, compartment model parameters, DAS 2.0, rats p.o. SPC 60 g crude drug/kg, Mean, 5 rats, read-out: AUC(0-t)
  AUC(0-t): 37.1 ng·h/mL
[3]; rat, plasma, po, 1.4 mg/kg, compartment model parameters, DAS 2.0, rats p.o. SPC 60 g crude drug/kg, Mean, 5 rats, read-out: AUC(0-∞)
  AUC(0-inf): 39.5 ng·h/mL
[3]; rat, plasma, po, 1.4 mg/kg, compartment model parameters, DAS 2.0, rats p.o. SPC 60 g crude drug/kg, Mean, 5 rats, read-out: CL/F (converted)
  CL/F: 594 mL/min/kg
[3]; rat, plasma, po, 1.4 mg/kg, compartment model parameters, DAS 2.0, rats p.o. SPC 60 g crude drug/kg, Mean, 5 rats, read-out: t1/2β (converted)
  half-life: 36.5 h
[3]; rat, plasma, po, 1.4 mg/kg, statistical moment parameters, DAS 2.0, rats p.o. SPC 60 g crude drug/kg, Mean, 5 rats, read-out: AUC(0-t)
  AUC(0-t): 35.5 ng·h/mL
[3]; rat, plasma, po, 1.4 mg/kg, statistical moment parameters, DAS 2.0, rats p.o. SPC 60 g crude drug/kg, Mean, 5 rats, read-out: AUC(0-∞)
  AUC(0-inf): 35.9 ng·h/mL
[3]; rat, plasma, po, 1.4 mg/kg, statistical moment parameters, DAS 2.0, rats p.o. SPC 60 g crude drug/kg, Mean, 5 rats, read-out: CLz/F (converted)
  CL/F: 652 mL/min/kg
[3]; rat, plasma, po, 1.4 mg/kg, statistical moment parameters, DAS 2.0, rats p.o. SPC 60 g crude drug/kg, Mean, 5 rats, read-out: MRT(0-t)
  MRT last: 1.83 h
[3]; rat, plasma, po, 1.4 mg/kg, statistical moment parameters, DAS 2.0, rats p.o. SPC 60 g crude drug/kg, Mean, 5 rats, read-out: MRT(0-∞)
  MRT inf: 2.09 h
[3]; rat, plasma, po, 1.4 mg/kg, statistical moment parameters, DAS 2.0, rats p.o. SPC 60 g crude drug/kg, Mean, 5 rats, read-out: Tmax
  Tmax: 0.25 h
[3]; rat, plasma, po, 1.4 mg/kg, statistical moment parameters, DAS 2.0, rats p.o. SPC 60 g crude drug/kg, Mean, 5 rats, read-out: Vz/F
  Vd/F: 103 L/kg
[3]; rat, plasma, po, 1.4 mg/kg, statistical moment parameters, DAS 2.0, rats p.o. SPC 60 g crude drug/kg, Mean, 5 rats, read-out: t1/2z (converted)
  half-life: 1.82 h
[3]; rat, plasma, po, 2.62 mg/kg, rats, p.o. SPC 60 g crude drug/kg, doses of 1-4: 0.124, 0.22, 1.42, 2.62 mg/kg, n = 5, read-out: AUC0→t Val.
  AUC(0-t): 35.5 ng·h/mL
[3]; rat, plasma, po, 2.62 mg/kg, rats, p.o. SPC 60 g crude drug/kg, doses of 1-4: 0.124, 0.22, 1.42, 2.62 mg/kg, n = 5, read-out: AUC0→∞ Val.
  AUC(0-inf): 35.9 ng·h/mL
[3]; rat, plasma, po, rats, p.o. SPC 60 g crude drug/kg, doses of 1-4: 0.124, 0.22, 1.42, 2.62 mg/kg, n = 5, read-out: Tmax Val.
  Tmax: 0.25 h
[3]; [5]
  Cmax: 27.183 ng/mL
  Cz: 0.117 µg/L
  VRT(0-t): 4.934 h^2
  VRT(0-∞): 8.138 h^2
  elimination rate constant: 0.429 h⁻¹
[3]; [6]
  AUMC(0-t): 65.207
  AUMC(0-∞): 75.236
